Values quoted from earlier work as cited in patent US9822391B2, “Methods for monitoring methotrexate therapy” (priority 2010, dated 2017).

What was measured:
[1] = approximately 5-10% of individuals who do not metabolize MTX effectively; within the first few hours following once weekly administration; Chladek et al., 1998
AICAR transformylase = AICAR transformylase (Homo sapiens, UniProt P31939); conditions: relative to MTX; Allegra et al., 1987
Chain of AICAR transformylase (P31939 whole entry, species assumed): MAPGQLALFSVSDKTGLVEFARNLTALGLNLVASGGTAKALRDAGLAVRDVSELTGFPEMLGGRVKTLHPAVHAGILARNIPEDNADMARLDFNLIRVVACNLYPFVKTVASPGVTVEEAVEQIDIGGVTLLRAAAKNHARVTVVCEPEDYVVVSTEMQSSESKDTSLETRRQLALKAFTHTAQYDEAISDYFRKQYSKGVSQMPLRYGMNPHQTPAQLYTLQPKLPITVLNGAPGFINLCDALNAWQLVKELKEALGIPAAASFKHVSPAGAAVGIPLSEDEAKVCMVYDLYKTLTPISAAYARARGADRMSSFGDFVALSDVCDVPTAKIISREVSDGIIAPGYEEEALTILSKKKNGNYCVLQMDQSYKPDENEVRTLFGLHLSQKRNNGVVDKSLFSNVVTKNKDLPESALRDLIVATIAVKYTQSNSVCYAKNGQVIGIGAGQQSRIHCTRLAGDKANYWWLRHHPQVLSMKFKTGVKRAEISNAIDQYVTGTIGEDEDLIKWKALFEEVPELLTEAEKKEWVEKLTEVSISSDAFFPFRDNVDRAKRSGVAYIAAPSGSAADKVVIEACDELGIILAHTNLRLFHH

SMILES	excretion of the drug in urine [1]	fold more potent than MTX itself against AICAR transformylase (AICAR transformylase)
CN(Cc1cnc2nc(N)nc(N)c2n1)c1ccc(C(=O)N[C@@H](CCC(=O)O)C(=O)O)cc1 [MTX, Methotrexate]	virtually the totality of the drug excreted unchanged in the urine	
CN(Cc1cnc2nc(N)nc(N)c2n1)c1ccc(C(=O)NC(CCC(=O)NC(CCC(=O)NC(CCC(=O)NC(CCC(=O)NC(CCC(=O)O)C(=O)O)C(=O)O)C(=O)O)C(=O)O)C(=O)O)cc1 (centres unmarked) [pentaglutamylated form of MTX]		2500 fold
